From PubChem BioAssay AID1996 come the findings set out here.

Molecules are shown by their SMILES. Values after ≈ are worked out from the molar mass of the structure shown.

For the data set the following is noted: buffer; pH 7.4; 200.0 µM.
`C=CCn1c(C)nnc1SCC(=O)NC1CCCCC1` gave a kinetic solubility greater than 0.0442 mg/mL.
On to `Cc1nonc1NC(=O)CSc1nc2ccccc2o1`, for which the kinetic solubility was determined as 0.0424 mg/mL (≈ 146 µM).
The result for `CN(C)C(=O)COc1ccc(Oc2ccccc2)cc1` reads 0.0257 mg/mL (≈ 94.7 µM); that for `Cc1c(N(C)CS(=O)(=O)O)c(=O)n(-c2ccccc2)n1C.[Na]`, greater than 0.0502 mg/mL.
Regarding `CC(C)c1ccccc1NC(=S)NCC1(N(C)C)CCCCC1`, the kinetic solubility stood at 0.0459 mg/mL (≈ 138 µM).
Then `O=C(NC1CCCCC1)c1ccc(-n2cncn2)c([N+](=O)[O-])c1`, with greater than 0.0473 mg/mL; and `CC(C)(C)C(=O)Cn1c(NCCCl)nc2ccccc21.Cl`, with greater than 0.0495 mg/mL; and `CCOC(=O)c1sc(NC(=O)Cc2ccccc2OC)nc1C`, with 0.0147 mg/mL (≈ 44 µM).
Then `Cc1c(C(=O)C(=O)N2c3ccccc3CC2C)c2ccccc2n1C` (configuration not stated), with 0.0016 mg/mL (≈ 4.81 µM); and `Cc1ccc(NC(=O)CSc2ncccn2)cc1S(=O)(=O)N1CCOCC1`, with greater than 0.0613 mg/mL; and `COc1ccc(OC)c(NC(=O)COC(=O)CCc2nc3ccccc3c(=O)[nH]2)c1`, with greater than 0.0617 mg/mL.
`O=C(/C=C/c1cccc([N+](=O)[O-])c1)c1ccco1` showed a solubility (kinetic) of 0.0017 mg/mL (≈ 6.99 µM).
Then `Cc1cnc(C(=O)N2CCN(S(=O)(=O)c3cccc(Br)c3)CC2)cn1`, with greater than 0.0638 mg/mL.
The result for `COc1ccc(C(=O)O)cc1S(N)(=O)=O` reads greater than 0.0347 mg/mL.
In turn, `COc1cccc(NC(=O)C2CCN(c3cnccn3)CC2)c1` displayed a kinetic solubility greater than 0.0469 mg/mL.
In turn, `Cn1c(C(=O)N[C@@H](C(=O)O)c2ccccc2)cc2cc(Cl)ccc21` came in with a solubility (kinetic) greater than 0.0514 mg/mL.
`Cc1ccc(S(=O)(=O)N2CCCN(C(=O)OC(C)(C)C)CC2)cc1` showed a kinetic solubility greater than 0.0532 mg/mL.
In the case of `O=c1[nH]c(CSc2ncn[nH]2)nc2ccccc12`, the solubility (kinetic) is greater than 0.0389 mg/mL.
The result for `CCOc1ccc(-c2n[nH]c(=S)o2)cc1` reads greater than 0.0333 mg/mL.
`COc1cccc(-c2cc(C(=O)NCC3CCCO3)c3cc(Br)cc(C)c3n2)c1` (configuration not stated) came in with a solubility (kinetic) of less than 0.0005 mg/mL.
The result for `O=C(CN1C(=O)NC2(CCOc3ccccc32)C1=O)NCc1ccccc1` (configuration not stated) reads greater than 0.0548 mg/mL; that for `O=C(OCC(=O)N1CCCc2ccccc21)c1ccccc1OC(F)F`, 0.0297 mg/mL (≈ 82.2 µM); that for `O=C(NCc1ccccc1)c1cc[n+](Cc2ccccc2)cc1.[Cl-]`, 0.0497 mg/mL.
The result for `O=c1[nH]c(=O)n(C2CCCCCC2)c(O)c1C=NCc1cccnc1` reads 0.0082 mg/mL (≈ 23.9 µM).
The result for `COc1ccccc1NS(=O)(=O)c1ccc2oc(N)nc2c1` reads greater than 0.0479 mg/mL.
With `NC(N)=NS(=O)(=O)c1ccc(NC(=S)NC(=O)c2ccccc2)cc1`, the kinetic solubility is 0.0039 mg/mL (≈ 10.3 µM).
Then `NC1=NC(=O)/C(=C\c2ccsc2)S1`, with 0.0286 mg/mL (≈ 136 µM); and `Cc1ccc(NS(=O)(=O)c2ccc(NC(=O)C3CC3)cc2)cc1C`, with 0.0069 mg/mL (≈ 20 µM).
The compound `COc1cccc(C(=S)N2CCCC2)c1OC` yielded a solubility (kinetic) of 0.0353 mg/mL (≈ 140 µM).
In turn, `O=C(Nc1cc([N+](=O)[O-])ccc1F)C1CCN(S(=O)(=O)c2cccs2)CC1` gave a solubility (kinetic) of 0.0044 mg/mL (≈ 10.6 µM).
Take `O=C(N1CCN(CCO)CC1)N1c2ccccc2CCc2ccccc21`: the kinetic solubility was determined as 0.0459 mg/mL (≈ 131 µM).
Then `COc1ccccc1NC(=O)c1ccccc1Nc1ccccc1`, with 0.0005 mg/mL (≈ 1.57 µM); and `Cc1nccn1Cc1ccc(Cl)nc1`, with greater than 0.0311 mg/mL; and `CCC(CC)c1nnc(NC(=O)c2cccc(S(=O)(=O)N3CCOCC3)c2)s1`, with greater than 0.0637 mg/mL.
Take `CCn1c(C)cc(O)cc1=O`: the solubility (kinetic) was greater than 0.023 mg/mL.
Compound `O=C(/C=C/c1ccc(Br)o1)Nc1nccs1` displayed a kinetic solubility of 0.0043 mg/mL (≈ 14.4 µM).
With `Cc1cc(C)cc(NC(=S)N2CCCC2)c1`, the kinetic solubility was greater than 0.0352 mg/mL.
The result for `O=C(c1ccc(Cl)c([N+](=O)[O-])c1)N1CCCc2ccccc21` reads 0.0237 mg/mL (≈ 74.8 µM); that for `Cc1ccccc1C(=O)Nc1cccc(NC(=O)c2cccs2)c1`, 0.0177 mg/mL (≈ 52.6 µM); that for `O=C(c1ccc(Oc2ccc([N+](=O)[O-])cc2)cc1)N1CCCCCC1`, 0.0344 mg/mL (≈ 101 µM).
The compound `Cc1ccc(CC(=O)Nc2ccc(F)c([N+](=O)[O-])c2)cc1C` gave a kinetic solubility of 0.0041 mg/mL (≈ 13.6 µM).
`O=S(=O)(Nc1ccccc1N1CCCCC1)c1ccc(F)cc1` yielded a solubility (kinetic) of 0.0025 mg/mL (≈ 7.48 µM).
Then `CC(C)CNC1CS(=O)(=O)CC1O.Cl` (configuration not stated), with greater than 0.0366 mg/mL; and `Cc1ccc(C)c(C(C)NC(=S)NC2CCCCC2)c1` (configuration not stated), with 0.0107 mg/mL (≈ 36.8 µM).
`CC(C)[C@H](NC(=O)c1ccccc1F)C(=O)NC1CCCCCCC1` came in with a solubility (kinetic) of 0.0075 mg/mL (≈ 21.5 µM).
The compound `CCc1cc2c(NC3CCCC3)ncnc2s1.Cl` had a solubility (kinetic) of 0.0308 mg/mL.
The result for `CCOC(=O)C1CCN(S(=O)(=O)c2cn(C)cn2)CC1` reads greater than 0.0452 mg/mL; that for `CCc1ccc(NC(=O)c2cnc(SC)nc2C)cc1`, 0.0174 mg/mL (≈ 60.5 µM).
`CC(=O)c1ccccc1NC(=O)CC1(CC(=O)O)CCCCC1` showed a solubility (kinetic) greater than 0.0476 mg/mL.
As to `Cc1nc([N+](=O)[O-])cn1C(C)C`, the kinetic solubility is greater than 0.0254 mg/mL.
With `NC(=O)CCN1CCCCC1`, the kinetic solubility was greater than 0.0234 mg/mL.
Compound `COC(=O)c1ccccc1NC(=O)Nc1ccc(C)cn1` had a solubility (kinetic) greater than 0.0428 mg/mL.

The term solubility (kinetic) denotes solubility judged after dilution from a stock solution rather than from solid.
